25 molecules from US11530213B2, “Naphthyridinone derivatives and their use in the treatment of arrhythmia” (NOVARTIS AG, priority 2016, dated 2022) can be followed below.

For orientation: IC50 means the midpoint of a concentration-inhibition curve. Read a high IC50 as a need for much substance.

The experiment has as its target GIRK1/4 (Homo sapiens (Human), UniProt P48544+P48549). Briefly: GIRK1/4 inhibition, Quattro (IonWorks) population patch clamp, inward potassium current in GIRK 1/4 HEK293 stable cells (test assay No. 1). The class given is cell-based. Conditions: percentage of current inhibition normalized to DMSO-only control. The method, then: The activity of a compound according to the present invention can be assessed by the following in vitro method. • 1. Buffers: • a. External buffer: 10 mM NaCl, 50 mM Na Gluconate, 80 mM K Gluconate, 1.8 mM CaCl2, 1 mM MgCl2, 10 mM HEPES, 10 mM Glucose, pH 7.4; osmolality […]. • b. Internal buffer: 30 mM KCl, 100 mM K Gluconate, 1 mM MgCl2, 10 mM HEPES, 1 mM EGTA, 10 mM NaCl, pH 7.2; osmolality […]. • 2. Compounds: • a. Prepare seven-fold compound dilution series (10 mM to 20 uM) in 100% DMSO, in 384-well polypropylene plates. • b. Propafenone (Sigma Aldrich, catalog number P4670) is used as a positive control and DMSO for neutral control • c. Resuspend 1 ul of compounds in DMSO into 65.7 ul external buffer in 384-well polypropylene plate and load into Plate 1 section of Molecular Devices Quattro • 3. Quattro setup: • a. Load 384-well Population Patch Plate (Molecular Devices #9000-0902) into Quattro • b. Fill Quattro F-soak trough with 20% DMSO and 50% EtOH • c. Fill Quattro buffer trough with external buffer • d. Attach internal buffer flask to Quattro internal buffer tubing • e. Attach PBS (Phosphate Buffered Saline, minus Ca^++ and Mg^++, pH7.4) bottle to F-head & E-head wash on Quattro • 4. Antibiotic: • a. Resuspend 5.6 mg amphotericin B (Sigma Aldrich, catalog number A2411) in 175 ul DMSO • b. Add the resulting solution to 50 ml internal buffer, mix and attach to antibiotic tubing port on Quattro • 5. Cells: • a. Use GIRK 1/4 HEK293 stable cells (obtained from ChanTest, 14656 Neo Parkway, Cleveland, Ohio 44128) grown to […] confluency in the following cell culture medium: DMEM containing 10% (v/v) Fetal Bovine Serum, Penicillin/Streptomycin (at “1×” concentration from a 100× stock), 0.5 mg/ml G418 and 0.1 mg/ml Zeocin. • b. Wash cells with PBS (minus Ca^++ and Mg^++), Detach cells using Detachin (Genlantis, 11011 Torreyana, San Diego, Calif. 92121), and resuspend in external buffer (5 ml final volume at 2.0-2.1×10^6 cells/ml) • c. Load into cell trough of Quattro • 6. Assay Protocol: • Quattro is controlled using IonWorks v2 software to perform the following steps: • a. Add 3.5 ul cells plus 3.5 ul external buffer to wells of Quattro Patch Plate • b. Circulate amphotericin B and internal buffer onto cells • c. Apply the following voltage protocol: Pulse 1: 15 mV for 300 milliseconds (ms), followed by Pulse 2: −120 mV for 400 ms, then Pulse 3: −15 mV for 400 ms, and finally Pulse 4: −120 mV to 40 mV over 500 ms (this is a voltage ramp). • d. Measure magnitude of inward potassium current at time point between 1200-1220 ms from start of Pulse 1 (i.e. during the voltage ramp phase). • e. Add 3.5 ul of diluted compounds (or DMSO) to wells and repeat steps c-d (final compound concentrations are 50 uM to 0.1 uM, for potent compounds 0.5 uM to 0.01 uM and each concentration is tested in quadruplicate—i.e. in 4 separate wells). • f. The difference between current magnitude pre vs. post-compound gives a measure of GIRK1/4 inhibition. • 7. Data analysis:
IC50 values are calculated by plotting the percentage of current inhibition (normalized to the DMSO-only control) as a function of compound concentration using standard data analysis software.

Chain of GIRK1/4 (P48549 whole entry): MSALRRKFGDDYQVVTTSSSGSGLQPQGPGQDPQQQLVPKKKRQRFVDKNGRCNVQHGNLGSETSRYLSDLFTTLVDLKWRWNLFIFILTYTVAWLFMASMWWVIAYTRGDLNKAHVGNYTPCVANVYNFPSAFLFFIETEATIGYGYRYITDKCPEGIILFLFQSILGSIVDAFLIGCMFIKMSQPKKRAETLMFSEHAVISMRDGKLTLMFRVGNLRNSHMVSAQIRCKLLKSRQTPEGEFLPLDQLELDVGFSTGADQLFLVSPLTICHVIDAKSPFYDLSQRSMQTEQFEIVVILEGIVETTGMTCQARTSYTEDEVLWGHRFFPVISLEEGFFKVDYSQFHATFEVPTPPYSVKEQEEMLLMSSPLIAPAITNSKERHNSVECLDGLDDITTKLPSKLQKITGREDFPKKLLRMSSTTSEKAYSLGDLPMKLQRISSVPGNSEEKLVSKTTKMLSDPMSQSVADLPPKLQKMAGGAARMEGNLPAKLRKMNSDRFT
Chain of GIRK1/4 (P48544 whole entry): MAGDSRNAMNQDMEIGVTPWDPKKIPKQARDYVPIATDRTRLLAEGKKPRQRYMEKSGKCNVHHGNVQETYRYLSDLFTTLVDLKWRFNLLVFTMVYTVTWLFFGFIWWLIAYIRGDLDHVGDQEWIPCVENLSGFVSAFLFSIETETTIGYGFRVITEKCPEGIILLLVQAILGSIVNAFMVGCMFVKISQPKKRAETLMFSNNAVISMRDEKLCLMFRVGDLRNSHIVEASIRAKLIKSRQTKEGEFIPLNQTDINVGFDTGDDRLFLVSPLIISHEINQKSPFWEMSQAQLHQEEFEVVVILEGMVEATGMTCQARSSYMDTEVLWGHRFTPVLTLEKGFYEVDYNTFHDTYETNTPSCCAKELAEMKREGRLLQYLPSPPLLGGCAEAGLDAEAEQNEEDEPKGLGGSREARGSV

Turning to `Cc1cc(=O)c2c(Oc3nnnn3C)ncc(Cl)c2n1-c1c(Cl)cccc1Cl` [Example 46, 8-chloro-1-(2,6-dichlorophenyl)-2-methyl-5-((1-methyl-1H-tetrazol-5-yl)oxy)-1,6-naphthyridin-4(1H)-one], 128 nM corresponded to half-maximal inhibition (IC50).

Take `Cc1cc(=O)c2c(Nc3nnn(C)n3)ncc(Cl)c2n1-c1c(Cl)cccc1Cl` [Example 47, 8-chloro-1-(2,6-dichlorophenyl)-2-methyl-5-((2-methyl-2H-tetrazol-5-yl)amino)-1,6-naphthyridin-4(1H)-one]: the IC50 amounted to 59 nM.

For the molecule `Cc1cc(=O)c2c(OCCO)ncc(Cl)c2n1-c1c(Cl)cccc1Cl` [Example 48, 8-chloro-1-(2,6-dichlorophenyl)-5-(2-hydroxyethoxy)-2-methyl-1,6-naphthyridin-4(1H)-one], the IC50 amounted to 9 nM.

Molecule `Cc1cc(=O)c2c(NOCCO)ncc(Cl)c2n1-c1c(Cl)cccc1Cl` [Example 49, 8-chloro-1-(2,6-dichlorophenyl)-5-((2-hydroxyethoxy)amino)-2-methyl-1,6-naphthyridin-4(1H)-one] came in with an IC50 of 42 nM.

With `Cc1cc(=O)c2c(OCC3COC3)ncc(Cl)c2n1-c1c(Cl)cccc1Cl` [Example 50, 8-chloro-1-(2,6-dichlorophenyl)-2-methyl-5-(oxetan-3-ylmethoxy)-1,6-naphthyridin-4(1H)-one], the IC50 was found to be 11 nM.

`CS(=O)(=O)CCNc1ncc(Cl)c2c1c(=O)cc(CO)n2-c1c(Cl)cccc1Cl` [Example 51, 8-chloro-1-(2,6-dichlorophenyl)-2-(hydroxymethyl)-5-((2-(methylsulfonyl)ethyl)amino)-1,6-naphthyridin-4(1H)-one]: the IC50 turned out to be 41 nM.

`Cc1cc(=O)c2c(OCC(O)CO)ncc(C3CC3)c2n1-c1c(Cl)cccc1Cl` (stereo not shown) [Example 52, 8-cyclopropyl-1-(2,6-dichlorophenyl)-5-(2,3-dihydroxypropoxy)-2-methyl-1,6-naphthyridin-4(1H)-one]: 73 nM corresponded to half-maximal inhibition (IC50).

In turn, `COCc1cc(=O)c2c(OCC(CO)CO)ncc(Cl)c2n1-c1c(Cl)cccc1Cl` [Example 53, 8-chloro-1-(2,6-dichlorophenyl)-5-(3-hydroxy-2-(hydroxymethyl)propoxy)-2-(methoxymethyl)-1,6-naphthyridin-4(1H)-one] had an IC50 of 28 nM.

For `COCc1cc(=O)c2c(OCC(O)CO)ncc(Cl)c2n1-c1c(Cl)cccc1Cl` (stereo not shown) [Example 54, 8-chloro-1-(2,6-dichlorophenyl)-5-(2,3-dihydroxypropoxy)-2-(methoxymethyl)-1,6-naphthyridin-4(1H)-one], the IC50 is 29 nM.

Turning to `N#Cc1cccc(Cl)c1-n1c(C2CC2)cc(=O)c2c(OCC(O)CO)ncc(Cl)c21` (stereo not shown) [Example 55, 3-chloro-2-(8-chloro-2-cyclopropyl-5-(2,3-dihydroxypropoxy)-4-oxo-1,6-naphthyridin-1(4H)-yl)benzonitrile], the midpoint of inhibition, the IC50, lay at 54 nM.

`Cc1cc(=O)c2c(NCCc3c[nH]cn3)cncc2n1-c1c(Cl)cc(C#N)cc1Cl` [Example 56, 4-(5-((2-(1H-imidazol-4-yl)ethyl)amino)-2-methyl-4-oxo-1,7-naphthyridin-1(4H)-yl)-3,5-dichlorobenzontrile] registered an IC50 of 197 nM.

Molecule `CC1(C)OCC(COc2ncc(Cl)c3c2c(=O)cc(CO)n3-c2c(Cl)cccc2Cl)O1` (stereo not shown) [Example 57, 8-chloro-1-(2,6-dichlorophenyl)-5-((2,2-dimethyl-1,3-dioxolan-4-yl)methoxy)-2-(hydroxymethyl)-1,6-naphthyridin-4(1H)-one] had an IC50 of 32 nM.

Turning to `O=c1cc(CO)n(-c2c(Cl)cc(F)cc2Cl)c2c(Cl)cnc(OCC(O)CO)c12` (stereo not shown) [Example 60, 8-Chloro-1-(2,6-dichloro-4-fluorophenyl)-5-(2,3-dihydroxypropoxy)-2-(hydroxymethyl)-1,6-naphthyridin-4(1H)-one], half-maximal inhibition (IC50) was put at 261 nM.

`O=c1cc(CO)n(-c2c(Cl)cc(F)cc2Cl)c2c(Cl)cnc(OCCO)c12` [Example 61, 8-Chloro-1-(2,6-dichloro-4-fluorophenyl)-5-(2-hydroxyethoxy)-2-(hydroxymethyl)-1,6-naphthyridin-4(1H)-one] registered an IC50 of 68 nM.

Regarding `O=c1cc(C(F)F)n(-c2c(Cl)cccc2Cl)c2c(Cl)cnc(OCC(O)CO)c12` (stereo not shown) [Example 62, 8-Chloro-1-(2,6-dichlorophenyl)-2-(difluoromethyl)-5-(2,3-dihydroxypropoxy)-1,6-naphthyridin-4(1H)-one], 13 nM corresponded to half-maximal inhibition (IC50).

For `N#Cc1cc(=O)c2c(OCC(O)CO)ncc(Cl)c2n1-c1c(Cl)cccc1Cl` (stereo not shown) [Example 63, 8-Chloro-1-(2,6-dichlorophenyl)-5-(2,3-dihydroxpropoxy)-4-oxo-1,4-dihydro-1,6-naphthyridine-2-carbonitrile], the IC50 was 16 nM.

In turn, `O=c1cc(CO)n(-c2c(Cl)cccc2Cl)c2c(Cl)cnc(O)c12` [Example 64, 8-Chloro-1-(2,6-dichlorophenyl)-5-hydroxy-2-(hydroxymethyl)-1,6-naphthyridin-4(1H)-one] had an IC50 of 970 nM.

`CNc1cc2c(c(OCC(O)CO)n1)c(=O)cc(C)n2-c1c(Cl)cccc1Cl` (stereo not shown) [Example 65, 1-(2,6-Dichlorophenyl)-5-(2,3-dihydroxpropoxy)-2-methyl-7-(methylamino)-1,6-naphthyridin-4(1H)-one] yielded an IC50 of 390 nM.

Take `CCc1cc2c(c(OCC(O)CO)n1)c(=O)cc(C)n2-c1c(Cl)cccc1Cl` (stereo not shown) [Example 66, 1-(2,6-Dichlorophenyl)-5-(2,3-dihydroxpropoxy)-7-ethyl-2-methyl-1,6-naphthyridin-4(1H)-one]: the IC50 worked out at 34 nM.

`CCc1cc2c(c(OCC(O)CO)n1)c(=O)cc(C)n2-c1c(Cl)cccc1CC` (stereo not shown) [Example 67, 1-(2-Chloro-6-ethylphenyl)-5-(2,3-dihydroxypropoxy)-7-ethyl-2-methyl-1,6-naphthyridin-4(1H)-one]: the IC50 turned out to be 168 nM.

The molecule `COc1cc2c(c(OCC(O)CO)n1)c(=O)cc(C)n2-c1c(Cl)cccc1Cl` (stereo not shown) [Example 68, 1-(2,6-Dichlorophenyl)-5-(2,3-dihydroxpropoxy)-7-methoxy-2-methyl-1,6-naphthyridin-4(1H)-one] had a concentration for half-maximal inhibition (IC50) of 234 nM.

As for `CCc1cnc(OCC(O)CO)c2c(=O)cc(C)n(-c3c(Cl)cccc3Cl)c12` (stereo not shown) [Example 69, 1-(2,6-Dichlorophenyl)-5-(2,3-dihydroxpropoxy)-8-ethyl-2-methyl-1,6-naphthyridin-4(1H)-one], the IC50 turned out to be 115 nM.

In turn, `Cc1cc(=O)c2c(NS(=O)(=O)c3cn[nH]c3)cncc2n1-c1c(Cl)cc(C#N)cc1Cl` [Example 70, N-(1-(2,6-Dichloro-4-cyanophenyl)-2-methyl-4-oxo-1,4-dihydro-1,7-naphthyridin-5-yl)-1H-pyrazole-4-sulfonamide] returned an IC50 of 3050 nM.

`Cc1cc(=O)c2c(-n3cncn3)ncc(Cl)c2n1-c1c(Cl)cccc1Cl` [Example 71, 8-Chloro-1-(2,6-dichlorophenyl)-2-methyl-5-(1H-1,2,4-triazol-1-yl)-1,6-naphthyridin-4(1H)-one] came in with an IC50 of 176 nM.

As to `Cc1cc(=O)c2c(-c3cc[nH]n3)cncc2n1-c1c(Cl)cc(C#N)cc1Cl` [Example 72, 3,5-dichloro-4-(2-methyl-4-oxo-5-(1H-pyrazol-3-yl)-1,7-naphthyridin-1(4H)-yl)benzonitrile], the midpoint of inhibition, the IC50, lay at 280 nM.
